Results: paper PMC9130998, “Paclitaxel binds and activates C5aR1: A new potential therapeutic target for the prevention of chemotherapy-induced peripheral neuropathy and hypersensitivity reactions” (Cell Death & Disease, 2022)

Molecular target: T1, complement component 5a receptor 1 (C5aR1) (Homo sapiens, UniProt P21730)
T1 construct: recombinant human C5aR1 with a C-terminal c-Myc tag
T1 sequence (P21730 1-350): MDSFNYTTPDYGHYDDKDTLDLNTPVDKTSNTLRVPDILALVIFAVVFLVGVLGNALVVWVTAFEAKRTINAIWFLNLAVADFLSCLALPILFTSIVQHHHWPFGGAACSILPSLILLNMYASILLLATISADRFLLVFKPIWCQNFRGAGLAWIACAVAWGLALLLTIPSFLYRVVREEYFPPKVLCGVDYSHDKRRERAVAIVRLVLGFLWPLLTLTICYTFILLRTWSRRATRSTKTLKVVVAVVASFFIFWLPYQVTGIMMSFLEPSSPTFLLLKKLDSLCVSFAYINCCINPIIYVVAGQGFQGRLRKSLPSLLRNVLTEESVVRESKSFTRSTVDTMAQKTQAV
Test: SPR (BIAcore X100) on immobilized receptor, dose-dependent
Assay type: binding

## CC(=O)O[C@@]12CO[C@@H]1C[C@H](O)[C@@]1(C)C(=O)[C@H](O)C3=C(C)[C@@H](OC(=O)[C@H](O)[C@@H](NC(=O)OC(C)(C)C)c4ccccc4)C[C@@](O)([C@@H](OC(=O)c4ccccc4)[C@H]21)C3(C)C [docetaxel]
  SPR (BIAcore X100) on immobilized receptor, dose-dependent: similarly to paclitaxel, also docetaxel can bind C5aR1 receptor in a dose dependent way (Fig. S2A–D)
